From ChEMBL document CHEMBL1135236, “Synthesis of iodinated 3beta-aryltropanes with selective binding to either the dopamine or serotonin transporters” (Bioorg Med Chem Lett, 2002)

Key:
[1] = target: Sodium-dependent serotonin transporter (Rattus norvegicus) (UniProt P31652); assay: Ratio of serotonin transporter potency to that of dopamine transporter potency
[2] = target: Sodium-dependent dopamine transporter (Rattus norvegicus, UniProt P23977); assay: Tested for the ability to displace [125I]- RTI-55 binding in rat striatal membrane against dopamine transporter; format: cell membranes, Striatum
[3] = target: Sodium-dependent serotonin transporter (Rattus norvegicus, UniProt P31652); assay: Tested for the ability to displace [3H]- paroxetine binding in rat frontal cortex membrane against Serotonin transporter; format: cell membranes
Chain of Sodium-dependent serotonin transporter (P31652 whole entry): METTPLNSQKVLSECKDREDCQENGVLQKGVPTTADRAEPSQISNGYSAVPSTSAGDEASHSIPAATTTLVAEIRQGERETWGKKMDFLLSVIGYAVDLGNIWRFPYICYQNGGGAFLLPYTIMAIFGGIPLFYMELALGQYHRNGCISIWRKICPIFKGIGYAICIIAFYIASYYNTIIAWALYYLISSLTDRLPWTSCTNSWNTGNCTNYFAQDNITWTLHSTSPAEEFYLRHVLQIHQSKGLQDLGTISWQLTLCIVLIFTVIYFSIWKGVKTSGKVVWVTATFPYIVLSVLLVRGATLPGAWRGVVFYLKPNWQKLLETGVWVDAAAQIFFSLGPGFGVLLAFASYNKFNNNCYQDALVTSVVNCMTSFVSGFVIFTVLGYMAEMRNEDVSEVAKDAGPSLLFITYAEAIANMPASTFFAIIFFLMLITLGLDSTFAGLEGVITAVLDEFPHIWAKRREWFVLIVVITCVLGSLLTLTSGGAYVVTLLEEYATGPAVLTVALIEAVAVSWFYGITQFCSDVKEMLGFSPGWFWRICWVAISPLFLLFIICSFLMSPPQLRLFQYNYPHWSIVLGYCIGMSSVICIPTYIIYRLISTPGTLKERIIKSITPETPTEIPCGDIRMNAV

Chain of Sodium-dependent dopamine transporter (P23977 whole entry): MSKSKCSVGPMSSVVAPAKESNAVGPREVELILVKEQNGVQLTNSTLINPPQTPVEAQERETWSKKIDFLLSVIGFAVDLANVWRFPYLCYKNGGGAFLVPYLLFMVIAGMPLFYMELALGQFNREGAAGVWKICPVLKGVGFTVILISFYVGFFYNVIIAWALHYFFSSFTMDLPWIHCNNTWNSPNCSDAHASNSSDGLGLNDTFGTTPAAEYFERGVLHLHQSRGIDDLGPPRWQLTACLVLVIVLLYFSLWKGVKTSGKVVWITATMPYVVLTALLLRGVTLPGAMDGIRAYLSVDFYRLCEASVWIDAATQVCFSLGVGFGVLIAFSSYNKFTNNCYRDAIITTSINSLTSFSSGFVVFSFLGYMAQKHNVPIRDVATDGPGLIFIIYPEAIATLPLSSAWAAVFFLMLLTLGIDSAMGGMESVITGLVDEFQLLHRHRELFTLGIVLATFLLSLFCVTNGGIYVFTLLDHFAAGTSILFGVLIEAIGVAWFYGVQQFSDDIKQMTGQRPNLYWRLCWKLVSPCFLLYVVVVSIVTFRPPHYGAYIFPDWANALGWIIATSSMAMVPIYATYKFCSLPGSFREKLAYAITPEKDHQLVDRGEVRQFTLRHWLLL
Chain of Sodium-dependent serotonin transporter (Rattus norvegicus) (P31652 whole entry): as the sequence (P31652 whole entry) above

Compound | Ratio [1] | IC50 [2] | Ki [3]
CCC(=O)C1C2CCC(CC1c1ccc(I)cc1)N2 (centres undefined) | 0.9 | 2.2 nM | 2.44 nM
CCC(=O)C1C2CCC(CC1c1ccc(/C=C/I)cc1)N2 (centres undefined) | 83 | 51.3 nM | 0.62 nM
CCC(=O)C1C2CCC(CC1c1ccc(I)c(F)c1)N2 (centres undefined) | 0.15 | 1.08 nM | 7.26 nM
Cc1ccc(C2CC3CCC(C2C(=O)CC/C=C/I)N3C)cc1 (centres undefined) | 0.26 | 13.3 nM | 50.8 nM
Cc1ccc([C@H]2CC3CCC([C@H]2C(=O)C(C/C=C/I)C/C=C/I)N3C)cc1 (some centres undefined) | – | 47.2 nM | > 1100 nM
CCC(=O)C1C(c2ccc(-c3cccn3C)cc2)CC2CCC1N2C/C=C/I (centres undefined) | 270 | 753 nM | 2.82 nM
CCC(=O)C1C(c2ccc(-c3cccn3C)cc2)CC2CCC1N2C/C=C\I (centres undefined) | 86 | 1120 nM | 13.1 nM
CCC(=O)C1C(c2cccc(I)c2)CC2CCC1N2C (centres undefined) | 2.9 | 56.5 nM | 19.7 nM
CCC(=O)C1C(c2ccc(I)c(Cl)c2)CC2CCC1N2C (centres undefined) | 0.067 | 0.077 nM | 1.14 nM
CCC(=O)C1C2CCC(CC1c1ccc(/C=C(\C)I)cc1)N2 (centres undefined) | 710 | 401 nM | 0.57 nM
CCC(=O)C1C2CCC(CC1c1cccc(I)c1)N2 (centres undefined) | 1.3 | 19.8 nM | 15.7 nM
CCC(=O)C1C2CCC(CC1c1ccc(/C=C(/C)I)cc1)N2 (centres undefined) | 510 | 66.5 nM | 0.13 nM
CCC(=O)C1C2CCC(CC1c1ccc(I)c(Cl)c1)N2 (centres undefined) | 0.079 | 0.085 nM | 1.08 nM
CCC(=O)C1C(c2ccc(I)cc2)CC2CCC1N2C (centres undefined) | 0.9 | 1.69 nM | 1.88 nM
CCC(=O)C1C(c2ccc(I)c(F)c2)CC2CCC1N2C (centres undefined) | 0.041 | 0.38 nM | 9.07 nM
